What is called pIC50 is −log10 of the IC50, conventionally taken in molar units. Low values mean a high IC50, high ones a low IC50.

pIC50: −log10 of the molar value.

The target in this test is Tyrosine-protein kinase ABL1 (Homo sapiens, UniProt P00519). In words: Biochemical Kinase Assay. How it is done:
Reagents and materials: ABL (ThermoFisher, Cat. No. PV3585), ABL T315I(Thermo Fisher, Cat. No. PR7429B), Ret (Carna, Cat. No. 08-159-10 ug), RETV804M, Active (Signalchem, Cat. No. R02-12GG), ATP (Sigma, Cat. No. A7699-1G), DMSO (Sigma, Cat. No. D2650), 96-well plate (Corning, Cat. No. 3365), 384-well plate (Greiner, Cat. No. 784076), buffer solution (Thermo Fisher, Cat. No. PR4876B). Specific Assay Method: Compound formulation: The test compounds were dissolved in DMSO to prepare a 20 mM stock solution. Before use, the compounds were diluted in DMSO to 0.1 mM, and diluted into 11 concentrations with a 3-fold gradient. When addition, dilutions of 4-fold final concentration were then made with buffer solution. Kinase assay method: After preparing the buffer, the enzyme was mixed with pre-formulated and diluted compounds of different concentrations in duplicate for each concentration, and placed at room temperature for 30 minutes. The corresponding substrate and ATP were added thereto,and reacted at room temperature for 60 minutes (both a negative and a positive control were set). After the reaction, antibody was added for detection, Envision detection was carried out after 60 minutes incubation at room temperature, and data was collected. Data analysis and fitting were made according to XLfit5 software.

Sequence of Tyrosine-protein kinase ABL1 (P00519 whole entry): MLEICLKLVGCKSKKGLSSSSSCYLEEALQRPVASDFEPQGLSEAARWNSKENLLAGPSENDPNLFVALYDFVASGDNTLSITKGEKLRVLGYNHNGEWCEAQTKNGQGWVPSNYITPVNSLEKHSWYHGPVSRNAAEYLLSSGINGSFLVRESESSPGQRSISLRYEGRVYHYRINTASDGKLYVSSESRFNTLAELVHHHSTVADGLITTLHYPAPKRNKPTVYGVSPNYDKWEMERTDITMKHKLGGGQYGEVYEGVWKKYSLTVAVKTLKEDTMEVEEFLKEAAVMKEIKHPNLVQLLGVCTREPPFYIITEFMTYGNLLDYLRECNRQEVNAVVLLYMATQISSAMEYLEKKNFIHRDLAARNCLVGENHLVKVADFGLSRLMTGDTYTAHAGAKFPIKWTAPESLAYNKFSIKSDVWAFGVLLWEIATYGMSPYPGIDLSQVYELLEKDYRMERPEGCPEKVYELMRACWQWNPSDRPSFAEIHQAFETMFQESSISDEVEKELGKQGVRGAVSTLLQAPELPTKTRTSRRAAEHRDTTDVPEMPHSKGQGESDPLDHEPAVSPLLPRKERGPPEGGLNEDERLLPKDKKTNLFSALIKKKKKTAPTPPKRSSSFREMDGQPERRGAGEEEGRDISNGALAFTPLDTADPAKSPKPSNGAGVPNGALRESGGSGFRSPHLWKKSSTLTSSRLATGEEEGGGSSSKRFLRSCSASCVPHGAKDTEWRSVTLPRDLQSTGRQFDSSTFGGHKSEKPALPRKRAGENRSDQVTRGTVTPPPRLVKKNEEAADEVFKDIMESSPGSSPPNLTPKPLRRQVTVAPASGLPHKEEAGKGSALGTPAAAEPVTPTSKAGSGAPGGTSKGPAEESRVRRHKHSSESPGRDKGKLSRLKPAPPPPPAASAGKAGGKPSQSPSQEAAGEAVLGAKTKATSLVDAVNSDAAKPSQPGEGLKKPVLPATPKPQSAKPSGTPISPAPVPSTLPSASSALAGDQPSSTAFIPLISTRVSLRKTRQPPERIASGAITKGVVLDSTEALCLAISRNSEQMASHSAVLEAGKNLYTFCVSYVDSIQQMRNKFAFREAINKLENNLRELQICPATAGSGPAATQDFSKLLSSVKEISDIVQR

With `Cc1ccc(NC(=O)Nc2ccc(Cl)c(C(F)(F)F)c2)cc1C#Cc1cnc2c(Nc3cnn(C)c3)nccn12` [US11746110, Example 7], the pIC50 was 7.49.

The compound `Cc1ccc(NC(=O)Nc2ccc(Cl)c(C(F)(F)F)c2)cc1C#Cc1cnc2c(Nc3cnn(C)c3)ccnn12` [US11746110, Example 16] gave a pIC50 of 7.08.

The values are drawn from BindingDB's records for patent US11746110 (Shenzhen Targetrx, 2023).
